Experimental data: patent publication US4672036A, “Pure cultures of Kibdelsporangium aridum Shearer gen. nov., sp. nov. ATCC 39323 and mutants thereof” (SmithKline Beckman Corporation, priority 1985, dated 1987)
Read-outs that look alike come from different tables or passages of the source.

Legend:
K. aridum = assay: susceptibility of K. aridum to antibiotics, disk diffusion method; type: cell-based, Kibdelosporangium aridum; details: for zone of inhibition at 5 µg/disc: Kibdelosporangium aridum, 168 h
Description: Susceptibility of K. aridum to antibiotics was examined by placing BBL susceptibility disks on nutrient agar plates seeded with K. aridum as an overlay. Diameters of the zones of inhibition were measured after incubation for one week at 28° C.
Chlortetracycline ([…]) produced 18 mm zones of inhibition; tetracycline (5 μg) 11-12 mm zones; rifampin (5 μg) 11-15 mm zones; novobiocin (5 μg) 27-28 mm zones. All zones of inhibition contained at least a few resistant colonies.

rumen in vitro model = rumen in vitro model (growth promotant activity); parameters: species or system steer
Description: The protocol for the rumen in vitro model is analogous to the protocol for the swine in vitro model with the following modifications:
(1) A 400 kg steer is surgically prepared with a rumen cannula.
(2) The animal is fed one time a day with the following ration:
(3) Manipulation of VFA production is described as the production ratio of propionate as a percentage of total VFA produced.
(4) Sampling of the material, via the cannula, is at 120 minutes post feeding.

[1] = rye diet; for Feed/Gain 3-10: days 3-10; for Feed/Gain 3-17: days 3-17; for Feed/Gain 10-17: days 10-17
Swine in vitro model = assay: swine in vitro model (growth promotant activity)

**Q.** For `CO[C@@H]1[C@@H](OC(N)=O)[C@@H](O)[C@H](Oc2ccc3c(O)c(NC(=O)c4ccc(O)c(CC=C(C)C)c4)c(=O)oc3c2C)OC1(C)C` [novobiocin], which zone of inhibition at 5 µg/disc (K. aridum) is on record?
**A.** The zone of inhibition at 5 µg/disc was 27 to 28 mm.

**Q.** For `CC1(C)S[C@@H]2[C@H](NC(=O)Cc3ccccc3)C(=O)N2[C@H]1C(=O)O` [penicillin], which “susceptibility of K. aridum” value (K. aridum; disk 10 units) is on record?
**A.** The value was “resistant”.

**Q.** Which zone of inhibition at 5 µg/disc (K. aridum) does the source give for `CO[C@H]1/C=C/O[C@@]2(C)Oc3c(C)c(O)c4c(O)c(c(/C=N/N5CCN(C)CC5)c(O)c4c3C2=O)NC(=O)/C(C)=C\C=C\[C@H](C)[C@H](O)[C@@H](C)[C@@H](O)[C@@H](C)[C@H](OC(C)=O)[C@@H]1C` [rifampin] here?
**A.** The zone of inhibition at 5 µg/disc was 11 to 15 mm.

**Q.** For `[H]/N=C(/N)N[C@H]1[C@H](O)[C@@H](O)[C@H](O[C@@H]2O[C@@H](C)[C@](O)(C=O)[C@H]2O[C@@H]2O[C@@H](CO)[C@H](O)[C@@H](O)[C@@H]2NC)[C@@H](N/C(N)=N\[H])[C@@H]1O` [streptomycin], which “susceptibility of K. aridum” value (K. aridum; disk 10 μg) is on record?
**A.** The value was “resistant”.

**Q.** For `CN(C)C1C(=O)C(C(N)=O)=C(O)C2(O)C(=O)C3=C(O)c4c(O)cccc4C(C)(O)C3CC12` (centres unmarked) [tetracycline], which zone of inhibition at 5 µg/disc (K. aridum) is on record?
**A.** Its zone of inhibition at 5 µg/disc is 11 to 12 mm.

**Q.** Which “susceptibility of K. aridum” value (K. aridum; disk 10 μg) does the source give for `NC[C@H]1O[C@H](O[C@H]2[C@H](O)[C@@H](O[C@H]3O[C@H](CO)[C@@H](O)[C@H](N)[C@H]3O)[C@H](N)C[C@@H]2N)[C@H](N)C[C@@H]1O` [tobramycin] here?
**A.** The value was “resistant”.

**Q.** For Avoparcin, which “GLU (glucose)” value (rumen in vitro model; 0.5 ppm) is on record?
**A.** Its value is 116 % Control.

**Q.** And the Propionate % (rumen in vitro model; 0.5 ppm)?
**A.** Its Propionate % is 106 % Control.

**Q.** And the “GLU (glucose)” value (rumen in vitro model; 5.0 ppm)?
**A.** The value was 166 % Control.

**Q.** And the Propionate % (rumen in vitro model; 5.0 ppm)?
**A.** Its Propionate % is 121 % Control.

**Q.** What about the “GLU (glucose)” value (rumen in vitro model; 50.0 ppm) of the same compound?
**A.** The value was 141 % Control.

**Q.** And the Propionate % (rumen in vitro model; 50.0 ppm)?
**A.** The Propionate % was 132 % Control.

**Q.** Which results are given for Virginiamycin?
**A.** Weight Day 10 ([1]; 10.0 PPM): 103.8 % of Control; Weight Day 17 ([1]; 10.0 PPM): 116.0 % of Control; Feed/Gain 3-10 ([1]; 10.0 PPM): 97.4 % of Control; Feed/Gain 3-17 ([1]; 10.0 PPM): 90.4 % of Control; Feed/Gain 10-17 ([1]; 10.0 PPM): 83.6 % of Control; Weight Day 10 ([1]; 50.0 PPM): 105.0 % of Control; Weight Day 17 ([1]; 50.0 PPM): 121.3 % of Control; Feed/Gain 3-10 ([1]; 50.0 PPM): 93.2 % of Control; Feed/Gain 3-17 ([1]; 50.0 PPM): 83.2 % of Control; Feed/Gain 10-17 ([1]; 50.0 PPM): 74.6 % of Control; LAC (L-lactic acid) (Swine in vitro model): 81 % Control; GLU (glucose) (Swine in vitro model; 1.67 ppm): 182 % Control; LAC (L-lactic acid) (Swine in vitro model; 1.67 ppm): 70 % Control; LYS (lysine) (Swine in vitro model; 1.67 ppm): 82 % Control; GLU (glucose) (Swine in vitro model; 16.67 ppm): 191 % Control; LAC (L-lactic acid) (Swine in vitro model; 16.67 ppm): 76 % Control; LYS (lysine) (Swine in vitro model; 16.67 ppm): 127 % Control; GLU (glucose) (Swine in vitro model; 166.67 ppm): 197 % Control; LYS (lysine) (Swine in vitro model; 166.67 ppm): 163 % Control

**Q.** With gentamicin as the compound, how does the “susceptibility of K. aridum” value (K. aridum; disk 10 μg) read?
**A.** The value was “resistant”.
